Experimental data: US4740233A, “Substituted 1,2,4-triazolo[1,5-a]-pyrimidine-2-sulfonamides and compositions and methods of controlling undesired vegetation and suppressing the nitrification of ammonium nitrogen in soil” (The Dow Chemical Company, priority 1986, dated 1988)

What was measured:
rice = test: Control of aquatic plant species (paddy water); assay type: in vivo, Oryza sativa; details: Oryza sativa, 216 h, nine days, read-out: Percent control; for pest or weed control at 31 g/ha: 0.031 Kg/Ha; for pest or weed control at 500 g/ha: 0.5 Kg/Ha
Procedure: (§1) In testing for such utility, the plant species to be tested were transplanted into 16 oz. containers into about 2 inches of soil when they were in the 1-2 inch stage and then flooded to a depth of about 1 inch. An acetone concentrate of the chemical to be tested was then injected into the paddy water, the volume injected being varied as desired to provide the desired concentration. Percent control was evaluated nine days after application.

sprangletop = test: Control of aquatic plant species (paddy water); assay type: in vivo, Leptochloa filiformis; details: Leptochloa filiformis, 216 h, nine days, read-out: Percent control; for pest or weed control at 31 g/ha: 0.031 Kg/Ha; for pest or weed control at 500 g/ha: 0.5 Kg/Ha
Procedure: as §1

[1] = tested on: nitrification of ammonium nitrogen; test: Suppression of nitrification of ammonium nitrogen in soil; details: 27° C.
Outline: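 Soil (20 g) moistened to its 1/3 bar tension value, mixed with test chemical and incubated sealed for two weeks at 27° C. Nitrate extracted with ammonium sulfate solution and measured by nitrate-specific ion electrode; value given as % NH4-N remaining.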

yellow nutsedge = test: Control of aquatic plant species (paddy water); assay type: in vivo, Cyperus esculentus; details: Cyperus, 216 h, nine days, read-out: Percent control; for pest or weed control at 31 g/ha: 0.031 Kg/Ha; for pest or weed control at 500 g/ha: 0.5 Kg/Ha
Procedure: as §1

barnyardgrass = test: Control of aquatic plant species (paddy water); assay type: in vivo, Echinochloa crusgalli; details: Echinochloa crus-galli, 216 h, nine days, read-out: Percent control; for pest or weed control at 31 g/ha: 0.031 Kg/Ha; for pest or weed control at 500 g/ha: 0.5 Kg/Ha
Procedure: as §1

Row | SMILES | pest or weed control at 31 g/ha (rice) [%] | pest or weed control at 500 g/ha (rice) [%] | pest or weed control at 31 g/ha (sprangletop) [%] | pest or weed control at 500 g/ha (sprangletop) [%] | % NH4-N Remaining After 2 Weeks Incubation ([1]; 0.01 ppm) [%] | % NH4-N Remaining After 2 Weeks Incubation ([1]; 0.1 ppm) [%] | % NH4-N Remaining After 2 Weeks Incubation ([1]; 1 ppm) [%] | % NH4-N Remaining After 2 Weeks Incubation ([1]; 10 ppm) [%] | pest or weed control at 31 g/ha (yellow nutsedge) [%] | pest or weed control at 500 g/ha (yellow nutsedge) [%] | pest or weed control at 31 g/ha (barnyardgrass) [%] | pest or weed control at 500 g/ha (barnyardgrass) [%] | further results
1 | Cc1cc(C)n2nc(S(=O)(=O)Nc3c(Cl)cccc3I)nc2n1 [Compound 53] | 0 | 99 | 10 | 97 | 47 | 71 | 85 | 93 | 95 | 99 | 80 | 99 | 
2 | Cc1cc(C)n2nc(S(=O)(=O)Nc3ccccc3C)nc2n1 [Compound 2] |  |  |  |  | 0 | 0 | 39 | 78 |  |  |  |  | pest or weed control at 2000 g/ha (rice; 2.0 Kg/Ha): 97%; pest or weed control at 2000 g/ha (sprangletop; 2.0 Kg/Ha): 99%; pest or weed control at 2000 g/ha (yellow nutsedge; 2.0 Kg/Ha): 93%; pest or weed control at 2000 g/ha (barnyardgrass; 2.0 Kg/Ha): 97%
3 | Cc1cc(C)n2nc(S(=O)(=O)Nc3c(C)cccc3[N+](=O)[O-])nc2n1 [Compound 49] |  | 97 |  | 97 | 42 | 77 | 90 | 99 |  | 99 |  | 97 | pest or weed control at 16 g/ha (rice; 0.016 Kg/Ha): 0%; pest or weed control at 16 g/ha (sprangletop; 0.016 Kg/Ha): 0%; pest or weed control at 16 g/ha (yellow nutsedge; 0.016 Kg/Ha): 95%; pest or weed control at 16 g/ha (barnyardgrass; 0.016 Kg/Ha): 50%
4 | Cc1cc(C)n2nc(S(=O)(=O)Nc3c(Br)cccc3Br)nc2n1 [Compound 38] | 0 |  | 0 |  | 46 | 68 | 84 | 94 | 95 |  | 80 |  | pest or weed control at 250 g/ha (rice; 0.25 Kg/Ha): 97%; pest or weed control at 250 g/ha (sprangletop; 0.25 Kg/Ha): 85%; pest or weed control at 250 g/ha (yellow nutsedge; 0.25 Kg/Ha): 97%; pest or weed control at 250 g/ha (barnyardgrass; 0.25 Kg/Ha): 99%
